In patent publication US12202835B2, “Substituted aromatic ring-linked dioxinoquinazolines and dioxinoquinolines as kinase inhibitors” (BEIJING SCITECH-MQ PHARMACEUTICALS LIMITED, priority 2018, dated 2025):

Key:
MER kinase = MER kinase (Homo sapiens (Human), UniProt Q12866); assay: Assay of small molecular compounds for inhibiting the activity of MER kinase (LANCE TR-FRET); assay type: biochemical
Outline: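 LANCE TR-FRET readout of ULight-poly GT phosphorylation by MER kinase; compound final range 0.042-2500 nM, 3-fold steps, 5 min enzyme preincubation. Reaction 60 min at room temperature in the dark with substrate/ATP (4× at 200 nM/20 μM), 1% DMSO, then stopped and developed 60 min; IC50 by curve fit.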

TRKA kinase = TRKA kinase (Homo sapiens (Human), UniProt P04629); assay: Assay of small molecular compounds for inhibiting the activity of TRKA kinase (LANCE TR-FRET); assay type: biochemical
TRKA kinase, sequence (P04629 33-796): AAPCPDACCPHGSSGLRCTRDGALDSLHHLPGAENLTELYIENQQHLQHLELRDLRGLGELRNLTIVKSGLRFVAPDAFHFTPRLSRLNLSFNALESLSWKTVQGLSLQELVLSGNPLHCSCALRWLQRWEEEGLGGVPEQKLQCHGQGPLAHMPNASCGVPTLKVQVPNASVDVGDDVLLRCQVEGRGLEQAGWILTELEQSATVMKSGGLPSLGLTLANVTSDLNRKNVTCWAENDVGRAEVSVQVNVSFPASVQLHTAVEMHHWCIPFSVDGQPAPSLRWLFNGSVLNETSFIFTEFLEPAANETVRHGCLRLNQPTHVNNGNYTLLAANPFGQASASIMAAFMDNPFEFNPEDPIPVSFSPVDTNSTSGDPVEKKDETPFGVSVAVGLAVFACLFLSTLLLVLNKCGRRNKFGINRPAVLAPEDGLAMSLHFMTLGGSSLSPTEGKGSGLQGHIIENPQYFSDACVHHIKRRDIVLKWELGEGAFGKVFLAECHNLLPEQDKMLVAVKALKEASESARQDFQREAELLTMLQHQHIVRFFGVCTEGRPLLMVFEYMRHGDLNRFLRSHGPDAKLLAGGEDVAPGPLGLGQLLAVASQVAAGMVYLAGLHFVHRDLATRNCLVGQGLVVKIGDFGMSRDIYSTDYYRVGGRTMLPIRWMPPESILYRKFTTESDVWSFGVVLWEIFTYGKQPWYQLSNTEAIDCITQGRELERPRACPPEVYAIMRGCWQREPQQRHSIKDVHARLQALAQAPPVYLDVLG
Outline: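 TRKA (supplied as 2 nM 2× solution) was pre-reacted with compounds for 5 min at room temperature before a 4× ULight-TK peptide/ATP mix (400 nM/40 μM) started the 60-min dark reaction at 1% DMSO. After stop and 60-min detection, TR-FRET was read.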

MER kinase, sequence (Q12866 21-999): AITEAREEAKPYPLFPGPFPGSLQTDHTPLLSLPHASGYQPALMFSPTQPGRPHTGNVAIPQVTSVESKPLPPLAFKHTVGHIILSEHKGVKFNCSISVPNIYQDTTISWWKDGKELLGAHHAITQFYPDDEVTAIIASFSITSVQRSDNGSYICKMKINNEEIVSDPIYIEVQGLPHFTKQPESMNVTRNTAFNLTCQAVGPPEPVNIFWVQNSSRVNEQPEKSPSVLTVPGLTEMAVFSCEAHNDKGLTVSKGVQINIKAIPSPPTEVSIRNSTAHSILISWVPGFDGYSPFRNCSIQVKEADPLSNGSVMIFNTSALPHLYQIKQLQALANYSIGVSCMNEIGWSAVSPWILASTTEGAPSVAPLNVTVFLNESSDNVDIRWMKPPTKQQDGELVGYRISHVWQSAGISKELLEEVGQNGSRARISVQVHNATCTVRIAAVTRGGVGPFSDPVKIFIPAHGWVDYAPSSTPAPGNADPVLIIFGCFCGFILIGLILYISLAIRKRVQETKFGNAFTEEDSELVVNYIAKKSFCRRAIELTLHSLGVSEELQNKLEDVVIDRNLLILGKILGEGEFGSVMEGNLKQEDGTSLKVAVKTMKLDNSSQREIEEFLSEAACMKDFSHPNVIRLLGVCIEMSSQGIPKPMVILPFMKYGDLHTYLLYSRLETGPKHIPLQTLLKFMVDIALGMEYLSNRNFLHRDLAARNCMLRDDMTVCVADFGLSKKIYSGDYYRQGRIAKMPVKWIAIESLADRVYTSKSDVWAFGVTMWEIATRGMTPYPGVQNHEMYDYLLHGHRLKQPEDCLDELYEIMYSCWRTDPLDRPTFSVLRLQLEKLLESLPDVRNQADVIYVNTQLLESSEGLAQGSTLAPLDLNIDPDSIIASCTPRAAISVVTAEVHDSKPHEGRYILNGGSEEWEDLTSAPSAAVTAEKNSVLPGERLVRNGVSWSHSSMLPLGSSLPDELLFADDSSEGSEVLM

Row | IC50 (MER kinase) [nM] | IC50 (TRKA kinase) [nM] | Compound
1 | ≤ 50 | < 50 | COc1cc2ncnc(Oc3ccc(NC(=O)c4cccn(-c5ccc(F)cc5)c4=O)cc3F)c2c2c1OCCO2 [Example 1, N-(3-fluoro-4-((5-methoxy-2,3-dihydro-[1,4]dioxino[2,3-f]quinazolin-10-yl)oxy)phenyl)-1-(4-fluorophenyl)-2-oxo-1,2-dihydropyridine-3-carboxamide]
2 | ≤ 50 | < 50 | COc1cc2ncnc(Oc3ccc(NC(=O)c4c(OC)ccn(-c5ccc(F)cc5)c4=O)cc3F)c2c2c1OCCO2 [Example 2, N-(3-fluoro-4-((5-methoxy-2,3-dihydro-[1,4]dioxino[2,3-f]quinazolin-10-yl)oxy)phenyl)-1-(4-fluorophenyl)-4-methoxy-2-oxo-1,2-dihydropyridine-3-carboxamide]
3 | ≤ 50 | < 50 | CCOc1ccn(-c2ccc(F)cc2)c(=O)c1C(=O)Nc1ccc(Oc2ncnc3cc(OC)c4c(c23)OCCO4)c(F)c1 [Example 3, N-(3-fluoro-4-((5-methoxy-2,3-dihydro-[1,4]dioxino[2,3-f]quinazolin-10-yl)oxy)phenyl)-1-(4-fluorophenyl)-4-ethoxy-2-oxo-1,2-dihydropyridine-3-carboxamide]
4 | ≤ 50 | 50 to 500 | CCOc1ccn(-c2ccc(F)cc2)c(=O)c1C(=O)Nc1ccc(Oc2ccnc3cc(OC(C)C)c4c(c23)OCCO4)c(F)c1 [Example 63, N-(4-((5-isopropoxy-2,3-dihydro-[1,4]dioxino[2,3-f]quinolin-10-yl)oxy)-3-fluorophenyl)-4-ethoxy-1-(4-fluorophenyl)-2-oxo-1,2-dihydropyridine-3-carboxamide]

Second part, the compound before the results:

Row | Compound | IC50 (MER kinase) [nM] | IC50 (TRKA kinase) [nM]
5 | COc1cn(-c2ccc(F)cc2C)nc1C(=O)Nc1ccc(Oc2ncnc3cc(OCCCN4CCOCC4)c4c(c23)OCCO4)c(F)c1 [Example 11, 1-(4-fluoro-2-methylphenyl)-N-(3-fluoro-4-((5-(3-morpholinopropoxy)-2,3-dihydro-[1,4]dioxino[2,3-f]quinazolin-10-yl)oxy)phenyl)-4-methoxy-1H-pyrazole-3-carboxamide] | 50 to 500 | –
6 | CCOc1cn(-c2ccc(F)cc2C)nc1C(=O)Nc1ccc(Oc2ncnc3cc(OCCCN4CCOCC4)c4c(c23)OCCO4)c(F)c1 [Example 12, 1-(4-fluoro-2-methylphenyl)-N-(3-fluoro-4-((5-(3-morpholinopropoxy)-2,3-dihydro-[1,4]dioxino[2,3-f]quinazolin-10-yl)oxy)phenyl)-4-ethoxy-1H-pyrazole-3-carboxamide] | 50 to 500 | –
7 | COc1cc2nccc(Oc3ccc(NC(=O)c4cn(CCO)c(=O)n(-c5ccc(F)cc5)c4=O)cc3F)c2c2c1OCCO2 [Example 45, N-(3-fluoro-4-((5-methoxy-2,3-dihydro-[1,4]dioxino[2,3-f]quinolin-10-yl)oxy)phenyl)-3-(4-fluorophenyl)-1-(2-hydroxyethyl)-2,4-dioxo-1,2,3,4-tetrahydropyrimidine-5-carboxamide] | ≤ 50 | 50 to 500
8 | CCOc1ccn(-c2ccc(F)cc2)c(=O)c1C(=O)Nc1ccc(Oc2ccnc3cc(OCC(C)C)c4c(c23)OCCO4)c(F)c1 [Example 58, N-(4-((5-(isobutyloxy)-2,3-dihydro-[1,4]dioxino[2,3-f]quinolin-10-yl)oxy)-3-fluorophenyl)-4-ethoxy-1-(4-fluorophenyl)-2-oxo-1,2-dihydropyridine-3-carboxamide] | ≤ 50 | 50 to 500
9 | CCOc1ccn(-c2ccc(F)cc2)c(=O)c1C(=O)Nc1ccc(Oc2ccnc3cc(OCC4CC4)c4c(c23)OCCO4)c(F)c1 [Example 59, N-(4-((5-(cyclopropylmethoxy)-2,3-dihydro-[1,4]dioxino[2,3-f]quinolin-10-yl)oxy)-3-fluorophenyl)-4-ethoxy-1-(4-fluorophenyl)-2-oxo-1,2-dihydropyridine-3-carboxamide] | ≤ 50 | 50 to 500
